From EP0171702A1, “Benzoxazinone derivatives, preparation and use” (BEECHAM GROUP PLC, priority 1984, dated 1986)
Read-outs that look alike come from different tables or passages of the source. Blank lines part the entries; values can stand above or below the compound they belong to.

Tests used:
[1] = system: spontaneously beating right atrium; experiment: Isolated rat atria: rate of the spontaneously beating right atrium; conditions: Rattus norvegicus; for Emax: maximal effect relative to isoprenaline maximum (isoprenaline = 1), read-out: Rate Intrinsic Activity; for EC50: molar concentration producing 50% of the compound's own maximum response
Method: (§1) Sprague-Dawley male rats (300-400g) are killed and the right and left atria dissected out independently and mounted on a combined tissue holder/electrode. […] The rate of the spontaneously beating right atrium (via an isometric transducer and a ratemeter) and the tension of the electrically paced left atrium (via an isometric transducer) are recorded on a M19 chart recorder.
(§2) After an initial stabilization period, the tissues are exposed to a maximal concentration of isoprenaline (10-^7M). The tissues are then washed several times until rate and tension return to baseline level. A dose-response curve to the test compound is then carried out.
(§3) Responses to each concentration of test compound are expressed as a percentage of the maximal responses to isoprenaline. Results are given in the form of (a) intrinsic activity (maximal effect of test compound with respect to isoprenaline maximum, i.e. isoprenaline intrinsic activity = 1) and (b) EC50 (the molar concentration at which the test compound produces 50% of its own maximum response).

[2] = system: electrically paced left atrium; experiment: Isolated rat atria: tension of the electrically paced left atrium; conditions: Rattus norvegicus; for Emax: maximal effect relative to isoprenaline maximum (isoprenaline = 1), read-out: Tension Intrinsic Activity; for EC50: molar concentration producing 50% of the compound's own maximum response
Method: as §1, §2, §3

conscious cats = experiment: Inotropic activity in conscious cats; assay type: in vivo; conditions: for Peak dp/dt: maximal percentage change in dp/dt of left ventricular pressure over initial baseline level; for Peak HR: maximal percentage change in heart rate over initial baseline level; for dp/dt: HR: ratio of peak dp/dt change to peak HR change
Method: Male 3-4.5 kg cats, bred in-house are implanted with a polythene cannula in the left ventricle which is exte- riorised at the back of the neck by means of a small teflon valve. Recordings are made via a pressure transducer attached by means of a length of polyethylene tubing to the cat neck valve.
During an initial 1 hour stabilisation period, steady baseline recordings are obtained. The test compound contained in a gelatine capsule, is then administered orally. Recording is normally carried out for 6 hours post dosing.
The maximal percentage change in dp/dt over initial baseline level is used as the index of inotropic activity. Chronotropic activity is taken as the maximal percentage change in HR over the initial baseline level.

Male Sprague-Dawley rats = experiment: Effect on energy expenditure of rats; assay type: in vivo; conditions: Rattus norvegicus, po, percentage of rate of rats dosed with water; for response vs control in vivo at 7.5 mg/kg: 7.5 mg/kg p.o.; for response vs control in vivo at 4 mg/kg: 4.0 mg/kg p.o.; for response vs control in vivo at 7.8 mg/kg: 7.8 mg/kg p.o.; for response vs control in vivo at 4.1 mg/kg: 4.1 mg/kg p.o.; for response vs control in vivo at 7.1 mg/kg: 7.1 mg/kg p.o.; for response vs control in vivo at 8.9 mg/kg: 8.9 mg/kg p.o.; for response vs control in vivo at 3.7 mg/kg: 3.7 mg/kg p.o.; for response vs control in vivo at 7.2 mg/kg: 7.2 mg/kg p.o.
Method: Water was provided ad lib at all times. The compounds were administered orally in water to 3 or 4 rats. A further 4 rats were dosed orally with water. The rats were placed in boxes through which air was drawn and the oxygen content of the air leaving the boxes was measured. The energy expenditure of the rats was calculated for 3 hours and for 21 hours after dosing from the volume of air leaving the boxes and its oxygen content, following the principles described by J.B. de V. Weir, J. Physiol. (London) 109, 1-9 (1949). The results are expressed as a percentage of the rate of energy expenditure of the rats dosed with water.

Female CFLP mice = experiment: Hypoglycaemic activity (subcutaneous glucose load, blood glucose curve); assay type: in vivo; conditions: glucose 1 g/kg subcutaneously, 2 hour period, compared with control mice given water
Method: Female CFLP mice, weighing approximately 25 g, were fasted for 24 hours prior to the study. The compounds under study were administered orally as an aqueous solution to each of 6 mice. 30 minutes later a blood sample (20 ul) was obtained from the tail for the analysis of blood glucose. Immediately after taking this blood sample, glucose (1 g/kg body weight) was administered subcutaneously to each mouse. 6 mice were given water as a control. Blood samples were then obtained from each mouse at 30 minute intervals for 120 minutes.
Compounds that produced a significant (p<0.05) reduction of blood glucose, compared with control mice qiven water, at any time interval were considered active. The area under the blood glucose curve over the 2 hour period after the administration of the glucose was calculated for each compound and compared with the value for control animals.

[3] = 3 h, 0-3h after dosing, read-out: Mean Energy Expenditure 0-3h
[4] = 21 h, 0-21h after dosing, read-out: Mean Energy Expenditure 0-21h

EC50 ([1]; Krebs solution at 32°C): 0.0062 µM
EC50 ([2]; Krebs solution at 32°C): 0.021 µM
SMILES: CC(COc1ccc2c(c1)OCC(=O)N2)NCC(O)c1ccc(O)cc1 (stereo not shown) [Example 1, 7-[2-[2-(4-hydroxyphenyl)-2-hydroxyethylamino]-2-methylethoxy]-2H-1,4-benzoxazin-3-(4H)-one]
Emax ([1]; Krebs solution at 32°C): 97%
Emax ([2]; Krebs solution at 32°C): 97%
Peak dp/dt (conscious cats; 1 mg/kg p.o.): 230%
Peak HR (conscious cats; 1 mg/kg p.o.): 46%
dp/dt: HR (conscious cats; 1 mg/kg p.o.): 5.0

EC50 ([1]; Krebs solution at 32°C): 0.055 µM
EC50 ([2]; Krebs solution at 32°C): 0.085 µM
SMILES: CC(COc1ccc2c(c1)OCC(=O)N2)NCC(O)c1cccc(Cl)c1 (stereo not shown) [Example 2, 7-[2-[2-(3-Chlorophenyl)-2-hydroxyethylamino]-2-methyl-ethoxy]-2H-1,4-benzoxazin-3-(4H)-one]
response vs control in vivo at 7.5 mg/kg (Male Sprague-Dawley rats; [3]): 128%
response vs control in vivo at 7.5 mg/kg (Male Sprague-Dawley rats; [4]): 110%
% Reduction in area under blood glucose curve (Female CFLP mice; 2.5 μmol/kg orally): 22%
Emax ([1]; Krebs solution at 32°C): 44%
Emax ([2]; Krebs solution at 32°C): 18%

EC50 ([1]; Krebs solution at 32°C): 0.0055 µM
EC50 ([2]; Krebs solution at 32°C): 0.021 µM
SMILES: CC(COc1ccc2c(c1)OCC(=O)N2)NCC(O)COc1ccc(O)cc1 (stereo not shown) [Example 3, 7-[2-[3-(4-Hydroxyphenoxy)-2-hydroxypropylamino]-2-methylethoxy]-2H-1,4-benzoxazin-3-(4H)-one]
response vs control in vivo at 4 mg/kg (Male Sprague-Dawley rats; [3]): 108%
response vs control in vivo at 4 mg/kg (Male Sprague-Dawley rats; [4]): 105%
% Reduction in area under blood glucose curve (Female CFLP mice; 2.5 μmol/kg orally): 3%
Emax ([1]; Krebs solution at 32°C): 72%
Emax ([2]; Krebs solution at 32°C): 52%
Peak dp/dt (conscious cats; 0.2 mg/kg p.o.): 23%
Peak HR (conscious cats; 0.2 mg/kg p.o.): 0%
Peak dp/dt (conscious cats; 1 mg/kg p.o.): 95%
Peak HR (conscious cats; 1 mg/kg p.o.): 13%
dp/dt: HR (conscious cats; 1 mg/kg p.o.): 7.3

EC50 ([1]; Krebs solution at 32°C): 0.014 µM
EC50 ([2]; Krebs solution at 32°C): 0.05 µM
SMILES: CC(COc1ccc2c(c1)NC(=O)CO2)NCC(O)COc1ccc(O)cc1 (stereo not shown) [Example 4, 6-[2-[3-(4-Hydroxyphenoxy)-2-hydroxypropylamino]-2-methylethoxy]-2H-1,4-benzoxazin-3-(4H)-one]
response vs control in vivo at 7.8 mg/kg (Male Sprague-Dawley rats; [3]): 128%
response vs control in vivo at 7.8 mg/kg (Male Sprague-Dawley rats; [4]): 119%
Emax ([1]; Krebs solution at 32°C): 89%
Emax ([2]; Krebs solution at 32°C): 40%
Peak dp/dt (conscious cats; 1 mg/kg p.o.): 50%
Peak HR (conscious cats; 1 mg/kg p.o.): 36%
dp/dt: HR (conscious cats; 1 mg/kg p.o.): 1.4

EC50 ([1]; Krebs solution at 32°C): 0.025 µM
EC50 ([2]; Krebs solution at 32°C): 0.3 µM
SMILES: CC(COc1ccc2c(c1)NC(=O)CO2)NCC(O)c1cccc(Cl)c1 (stereo not shown) [Example 6, 6-[2-[2-(3-Chlorophenyl)-2-hydroxyethylamino]-2-methylethoxy]-2H-1,4-benzoxazin-3-(4H)-one]
response vs control in vivo at 7.5 mg/kg (Male Sprague-Dawley rats; [3]): 125%
response vs control in vivo at 7.5 mg/kg (Male Sprague-Dawley rats; [4]): 105%
% Reduction in area under blood glucose curve (Female CFLP mice; 10 μmol/kg orally): 29%
Emax ([1]; Krebs solution at 32°C): 66%
Emax ([2]; Krebs solution at 32°C): 7%

EC50 ([1]; Krebs solution at 32°C): 0.036 µM
EC50 ([2]; Krebs solution at 32°C): 0.045 µM
SMILES: CC(COc1ccc2c(c1)NC(=O)CO2)NCC(O)c1ccc(Cl)c(Cl)c1 (stereo not shown) [Example 7, 6-[2-[2-(3,4-Dichlorophenyl)-2-hydroxyethylamino]-2-methylethoxy]-2H-1,4-benzoxazin-3-(4H)-one]
response vs control in vivo at 4.1 mg/kg (Male Sprague-Dawley rats; [3]): 149%
response vs control in vivo at 4.1 mg/kg (Male Sprague-Dawley rats; [4]): 107%
% Reduction in area under blood glucose curve (Female CFLP mice; 25 μmol/kg orally): 11%
Emax ([1]; Krebs solution at 32°C): 50%
Emax ([2]; Krebs solution at 32°C): 14%

SMILES: CC(Cc1ccc2c(c1)NC(=O)CO2)NCC(O)COc1ccccc1 (stereo not shown) [Example 11, 6-[2-[3-Phenoxy-2-hydroxypropylamino]-2-methylethyl]-2H-1,4-benzoxazin-3-(4H)-one]
response vs control in vivo at 7.1 mg/kg (Male Sprague-Dawley rats; [3]): 119%
response vs control in vivo at 7.1 mg/kg (Male Sprague-Dawley rats; [4]): 108%
Emax ([1]; Krebs solution at 32°C): 32%
EC50 ([1]; Krebs solution at 32°C): 0.053 µM
Emax ([2]; Krebs solution at 32°C): 11%
EC50 ([2]; Krebs solution at 32°C): 0.1 µM

EC50 ([1]; organ bath at 29°C): 0.029 µM
EC50 ([2]; organ bath at 29°C): 0.79 µM
SMILES: CC(COc1ccc2c(c1)N(C)C(=O)CO2)NCC(O)c1cccc(Cl)c1 (stereo not shown) [Example 12, 6-[2-[2-(3-Chlorophenyl)-2-hydroxyethylamino]-2-methylethoxy]-4-methyl-2H-1,4-benzoxazin-3-(4H)-one hemifumarate]
response vs control in vivo at 8.9 mg/kg (Male Sprague-Dawley rats; [3]): 109%
response vs control in vivo at 8.9 mg/kg (Male Sprague-Dawley rats; [4]): 97%
Emax ([1]; organ bath at 29°C): 98%
Emax ([2]; organ bath at 29°C): 90%

SMILES: CC(Cc1ccc2c(c1)NC(=O)CO2)NCC(O)COc1ccc(O)cc1 (stereo not shown) [Example 14, 6-[2-[3-(4-Hydroxyphenoxy)-2-hydroxypropylamino]-2-methylethyl]-2H-1,4-benzoxazin-3-(4H)-one]
response vs control in vivo at 3.7 mg/kg (Male Sprague-Dawley rats; [3]): 114%
response vs control in vivo at 3.7 mg/kg (Male Sprague-Dawley rats; [4]): 103%
Emax ([1]; Krebs solution at 32°C): 87%
EC50 ([1]; Krebs solution at 32°C): 0.4 µM
Emax ([2]; Krebs solution at 32°C): 54%
EC50 ([2]; Krebs solution at 32°C): 1.4 µM

EC50 ([1]; Krebs solution at 32°C): 0.044 µM
EC50 ([2]; Krebs solution at 32°C): 0.16 µM
SMILES: CC(COc1ccc2c(c1)NC(=O)CO2)NCC(O)c1ccc(O)cc1 (stereo not shown) [Example 15, 6-[2-[2-(4-Hydroxyphenyl)-2-hydroxyethylamino]-2-methylethoxy]-2H-1,4-benzoxazin-3-(4H)-one]
response vs control in vivo at 7.2 mg/kg (Male Sprague-Dawley rats; [3]): 126%
response vs control in vivo at 7.2 mg/kg (Male Sprague-Dawley rats; [4]): 103%
Emax ([1]; Krebs solution at 32°C): 98%
Emax ([2]; Krebs solution at 32°C): 88%

EC50 ([1]; organ bath at 29°C): 0.063 µM
EC50 ([2]; organ bath at 29°C): 0.13 µM
SMILES: CCc1cccc2cc(C(O)CNC(C)COc3ccc4c(c3)NC(=O)CO4)oc12 (stereo not shown) [Example 20, 6-[2-[2-(7-Ethylbenzofuran-2-yl)-2-hydroxyethylamino]-2-methylethoxy]-2H-1,4-benzoxazin-3-(4H)-one]
response vs control in vivo at 4.1 mg/kg (Male Sprague-Dawley rats; [3]): 110%
response vs control in vivo at 4.1 mg/kg (Male Sprague-Dawley rats; [4]): 107%
Emax ([1]; organ bath at 29°C): 95%
Emax ([2]; organ bath at 29°C): 113%
